Measured values as given in patent US11976069B2, “Inhibitors of histone deacetylase useful for the treatment or prevention of HIV infection” (Merck Sharp & Dohme LLC, priority 2019, dated 2024).

How the values were obtained:
Type in all cases: biochemical
HDAC3/SMRT heterodimer = target: T1, HDAC3/SMRT heterodimer (Homo sapiens, UniProt O15379); assay: HDAC3/SMRT inhibition, modified Fluor-de-Lys assay; conditions: 3 h pre-incubation, 0.3 nM enzyme, 20 μM substrate BML-KI104, read-out: HDAC-3 IC50
T1 construct: FLAG (C)
T1 sequence (O15379 whole entry): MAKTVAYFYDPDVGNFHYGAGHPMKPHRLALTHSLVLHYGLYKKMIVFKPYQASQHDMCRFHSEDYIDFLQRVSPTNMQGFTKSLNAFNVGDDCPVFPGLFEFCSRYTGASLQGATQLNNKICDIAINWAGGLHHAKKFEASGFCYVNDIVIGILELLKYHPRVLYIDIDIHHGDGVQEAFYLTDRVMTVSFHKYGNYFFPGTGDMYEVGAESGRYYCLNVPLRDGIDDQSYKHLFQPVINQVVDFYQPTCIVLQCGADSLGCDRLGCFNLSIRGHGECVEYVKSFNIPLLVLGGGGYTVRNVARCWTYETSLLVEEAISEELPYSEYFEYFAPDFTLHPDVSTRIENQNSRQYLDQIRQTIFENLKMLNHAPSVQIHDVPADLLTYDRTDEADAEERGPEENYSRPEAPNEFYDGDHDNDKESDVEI
T1 sequence (Q9Y618 1-899 partner limits assumed): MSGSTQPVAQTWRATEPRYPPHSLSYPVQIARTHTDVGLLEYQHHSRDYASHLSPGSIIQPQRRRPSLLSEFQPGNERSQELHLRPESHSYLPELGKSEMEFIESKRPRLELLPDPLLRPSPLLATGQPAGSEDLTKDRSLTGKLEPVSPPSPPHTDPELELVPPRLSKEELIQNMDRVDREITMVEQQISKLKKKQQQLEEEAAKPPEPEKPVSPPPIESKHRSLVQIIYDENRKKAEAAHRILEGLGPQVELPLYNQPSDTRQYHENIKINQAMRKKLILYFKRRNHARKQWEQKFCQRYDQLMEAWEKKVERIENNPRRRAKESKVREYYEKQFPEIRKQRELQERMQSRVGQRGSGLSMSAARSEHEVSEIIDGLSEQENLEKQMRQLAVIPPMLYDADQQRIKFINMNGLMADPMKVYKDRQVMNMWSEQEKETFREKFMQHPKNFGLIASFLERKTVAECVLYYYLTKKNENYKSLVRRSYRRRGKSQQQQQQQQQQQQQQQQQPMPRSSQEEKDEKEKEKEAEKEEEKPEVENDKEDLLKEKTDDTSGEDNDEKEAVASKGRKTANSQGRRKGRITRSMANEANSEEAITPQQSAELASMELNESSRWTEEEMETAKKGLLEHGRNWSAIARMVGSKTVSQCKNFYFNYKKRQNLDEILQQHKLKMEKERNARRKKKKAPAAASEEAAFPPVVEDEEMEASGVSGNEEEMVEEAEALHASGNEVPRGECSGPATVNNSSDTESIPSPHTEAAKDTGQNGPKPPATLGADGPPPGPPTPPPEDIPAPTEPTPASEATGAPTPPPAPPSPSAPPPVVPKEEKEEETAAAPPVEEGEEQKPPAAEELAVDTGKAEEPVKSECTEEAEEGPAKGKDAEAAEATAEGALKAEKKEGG
Experimental: (§1) Human HDAC Enzyme Inhibitor FLUOR-DE-LYS Assay Materials
(§2) Recombinant human HDAC1, HDAC2, and HDAC3/SMRT heterodimer were prepared by Merck Research Laboratories. […] The eluted protein was then passed over an anti-HDAC1 immunoaffinity column to remove any complexes containing HDAC1. […]
(§3) The histone deacetylase activities of HDAC1, HDAC2, HDAC3, HDAC6, and HDAC8 were measured in modified Fluor-de-Lys assays in 384-well format. In this assay, HDAC enzymes are initially incubated with an ε-acetyl (or -trifluoroacetyl)-L-lysine-containing substrate with a C-terminal amide having aminomethylcoumarin as the amine component. HDACs cleave the ε-acetyl group, rendering the resulting product susceptible to AMC cleavage by trypsin. The released AMC is then detected by its fluorescence.
(§4) The HDAC 1, 2 assays employed buffer A, which contained 20 mM HEPES, pH 8.0, 1 mM MgCl2, 137 mM NaCl, 2.7 mM KCl, 0.05% BSA. The HDAC3/SMRT assay employed buffer B, consisting of 20 mM HEPES, pH 8.0, 1 mM MgCl2, 50 mM NaCl, 2.7 mM KCl, 0.05% BSA, 0.005% Tween 20, and 10 μM IP4. The HDAC6 assay employed buffer C, consisting of 20 mM HEPES, pH 8.0, 1 mM MgCl2, 137 mM NaCl, 2.7 mM KCl, 0.5 mM TCEP (Calbiochem) and 0.05% BSA. The HDAC8 assay employed buffer D, consisting of 20 mM HEPES, pH 8.0, 1 mM MgCl2, 100 mM NaCl, 20 mM KCl, 0.1% n-octyl-β-D-glucoside (Anatrace, Maumee, Ohio) and 0.05% BSA. All steps were performed at room temperature (23° C.). The assay was performed by pre-incubating serial dilutions of test compounds with the target HDAC prior to initiation with substrate. Each compound was titrated in a 10-point dose response, using a 1:3 fold dilution scheme, with 0.15 ul of solution added by ECHO555 to the plate, followed by the addition of 20 μl of the appropriate HDAC isoform diluted in appropriate assay buffer. […] Final conditions used for each assay were: 1. HDAC 1, 0.3 nM total enzyme, 20 μM substrate BML-KI104; 2. HDAC 2, 1.5 nM total enzyme, 40 μM substrate BML-KI104; 3. HDAC 3/SMRT, 0.3 nM total enzyme, 20 μM substrate BML-KI104; 4. HDAC 6, 1.3 nM total enzyme, 2.5 μM substrate BML-KI104; 5. HDAC 8, 1.3 nM total enzyme, 200 μM substrate BML-KI178; the final high dose of test compound was 30 μM. For potent compounds, 900 nM was used as the final high dose. The reactions were stopped and developed by addition of 30 ul of HDAC developer solution containing a saturating level of HDAC inhibitor as follows: 1.

HDAC2 = target: T2, HDAC2 (Homo sapiens, UniProt Q92769); assay: HDAC2 inhibition, modified Fluor-de-Lys assay; conditions: 3 h pre-incubation, […] enzyme, 40 μM substrate BML-KI104; read-out: HDAC-2 IC50
T2 construct: Full length human HDAC2-FLAG was expressed in baculovirus infected Sf9 cells; FLAG (C); host or cells: baculovirus infected Sf9 cells
T2 sequence (Q92769 whole entry): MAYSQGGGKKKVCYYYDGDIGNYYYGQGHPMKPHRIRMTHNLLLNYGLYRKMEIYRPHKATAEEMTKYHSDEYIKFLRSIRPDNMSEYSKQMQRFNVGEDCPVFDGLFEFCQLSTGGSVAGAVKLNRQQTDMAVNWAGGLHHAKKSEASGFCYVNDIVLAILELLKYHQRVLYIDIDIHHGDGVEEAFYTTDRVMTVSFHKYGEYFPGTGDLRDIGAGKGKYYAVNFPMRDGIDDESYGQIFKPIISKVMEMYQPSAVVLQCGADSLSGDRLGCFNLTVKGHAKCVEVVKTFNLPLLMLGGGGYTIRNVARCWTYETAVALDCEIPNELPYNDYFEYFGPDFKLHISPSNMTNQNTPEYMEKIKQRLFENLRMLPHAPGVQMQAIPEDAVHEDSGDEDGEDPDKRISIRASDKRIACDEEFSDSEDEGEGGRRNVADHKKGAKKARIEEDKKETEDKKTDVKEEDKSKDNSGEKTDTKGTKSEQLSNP
Experimental: as §1, §2, §3, §4

HDAC1 = target: T3, HDAC1 (Homo sapiens, UniProt Q13547); assay: HDAC1 inhibition, modified Fluor-de-Lys assay; conditions: 3 h pre-incubation, 0.3 nM enzyme, 20 μM substrate BML-KI104; read-out: HDAC-1 IC50
T3 construct: FLAG (C)
T3 sequence (Q13547 whole entry): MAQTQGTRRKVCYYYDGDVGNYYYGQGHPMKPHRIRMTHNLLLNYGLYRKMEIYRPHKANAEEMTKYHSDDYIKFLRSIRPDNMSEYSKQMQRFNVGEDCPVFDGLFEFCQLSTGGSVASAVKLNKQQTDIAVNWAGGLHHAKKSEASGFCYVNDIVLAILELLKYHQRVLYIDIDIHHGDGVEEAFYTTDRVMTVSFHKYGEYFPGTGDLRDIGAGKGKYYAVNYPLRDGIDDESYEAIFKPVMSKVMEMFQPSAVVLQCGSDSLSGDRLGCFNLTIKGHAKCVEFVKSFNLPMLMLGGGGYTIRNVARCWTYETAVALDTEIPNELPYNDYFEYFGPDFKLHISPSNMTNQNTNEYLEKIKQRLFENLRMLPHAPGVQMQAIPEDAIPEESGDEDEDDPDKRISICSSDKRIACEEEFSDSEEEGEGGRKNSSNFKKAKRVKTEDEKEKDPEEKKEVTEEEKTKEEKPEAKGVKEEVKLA
Experimental: as §1, §2, §3, §4

## CCC(=O)CCCCC[C@H](NC(=O)[C@H]1CC12CCN(CC)CC2)c1[nH]c2nc1C(=O)NCCC/C=C\c1cccc-2c1 [Compound 14, (1S)-6-ethyl-N-{(1S)-7-oxo-1-[(11Z)-6-oxo-3,7,18-triazatricyclo[11.3.1.1~2,5~]octadeca-1(17),2(18),4,11,13,15-hexaen-4-yl]nonyl}-6-azaspiro[2.5]octane-1-carboxamide]
HDAC3/SMRT heterodimer
  IC50: 113 nM
HDAC2
  IC50: 572 nM
HDAC1
  IC50: 133 nM

## CCC(=O)CCCCC[C@H](NC(=O)[C@H]1CC12CCN(CC)CC2)c1[nH]c2nc1C(=O)NCCC/C=C/c1cccc-2c1 [Compound 15, (1S)-6-ethyl-N-{(1S)-7-oxo-1-[(11E)-6-oxo-3,7,18-triazatricyclo[11.3.1.1~2,5~]octadeca-1(17),2(18),4,11,13,15-hexaen-4-yl]nonyl}-6-azaspiro[2.5]octane-1-carboxamide]
HDAC3/SMRT heterodimer
  IC50: 18 nM
HDAC2
  IC50: 223 nM
HDAC1
  IC50: 21 nM

## (11S,4S)-4-(6-oxooctyl)-61,62-dihydro-3-aza-5(2,5)-oxazola-6(6,1)-quinolina-12(4,1)-piperidina-1(1,2)-cyclopropanadodecaphane-62,2-dione [Compound 8]
HDAC3/SMRT heterodimer
  IC50: 130 nM
HDAC2
  IC50: 287 nM
HDAC1
  IC50: 42 nM

## CCC(=O)CCCCC[C@@H]1NC(=O)[C@H]2CC23CCN(CCCCCCCCn2ccc4cc(c(OC)cc4c2=O)-c2cnc1[nH]2)CC3 [Compound 5, (1^1S,4S)-6^7-methoxy-4-(6-oxooctyl)-6^1,6^2-dihydro-5^1H-3-aza-6(6,2)-isoquinolina-15(4,1)-piperidina-5(2,5)-imidazola-1(1,2)-cyclopropanapentadecaphane-6^1,2-dione]
HDAC3/SMRT heterodimer
  IC50: 0.13 nM
HDAC2
  IC50: 0.31 nM
HDAC1
  IC50: 0.11 nM

## CCC(=O)CCCCC[C@@H]1NC(=O)[C@H]2CC23CCN(CCCOCCCn2ccc4cc(ccc4c2=O)-c2cnc1[nH]2)CC3 [Compound 12, (3S,6S)-6-(6-oxooctyl)-22-oxa-5,8,18,26,33-pentaazahexacyclo[24.2.2.1˜7,10˜0.1˜11,15˜0.1˜14,18˜0.0˜1,3˜]tritriaconta-7,9,11(32),12,14,16-hexaene-4,31-dione]
HDAC3/SMRT heterodimer
  IC50: 0.32 nM
HDAC2
  IC50: 8.5 nM
HDAC1
  IC50: 0.33 nM

## CCC(=O)CCCCCC1NC(=O)C2CC2N2CCC(CCCCCn3c(=O)ccc4cc(ccc43)-c3cnc1o3)CC2 [Compound 7, (11S,4S)-4-(6-oxooctyl)-61,62-dihydro-3-aza-5(2,5)-oxazola-6(6,1)-quinolina-12(4,1)-piperidina-1(1,2)-cyclopropanadodecaphane-62,2-dione]
HDAC3/SMRT heterodimer
  IC50: 57 nM
HDAC2
  IC50: 260 nM
HDAC1
  IC50: 16 nM
